{
  "source": "paper PMC4010550",
  "about": "“Imidazol-1-ylethylindazole Voltage-Gated Sodium Channel Ligands Are Neuroprotective during Optic Neuritis in a Mouse Model of Multiple Sclerosis” (Journal of Medicinal Chemistry, 2014)",
  "key": {"[1]": {"tested_on": "rat hippocampal slices", "assay": "in vitro neuroprotection assay, hippocampal slices under oxygen-glucose deprivation, ATP levels", "format": "cell-based", "conditions": "for Emax at 50 µM: Rattus norvegicus"}, "[2]": {"molecular_target": "hNav1.1 (Homo sapiens, UniProt P35498)", "assay": "automated patch-clamp Nav isoform screening", "format": "cell-based", "conditions": "Nav1.1"}, "[3]": {"molecular_target": "hNav1.2 (Homo sapiens, UniProt Q99250)", "assay": "automated patch-clamp Nav isoform screening", "format": "cell-based", "conditions": "Nav1.2"}, "[4]": {"molecular_target": "hNav1.3 (Homo sapiens, UniProt Q9NY46)", "sequence (Q9NY46 whole entry, canonical isoform)": "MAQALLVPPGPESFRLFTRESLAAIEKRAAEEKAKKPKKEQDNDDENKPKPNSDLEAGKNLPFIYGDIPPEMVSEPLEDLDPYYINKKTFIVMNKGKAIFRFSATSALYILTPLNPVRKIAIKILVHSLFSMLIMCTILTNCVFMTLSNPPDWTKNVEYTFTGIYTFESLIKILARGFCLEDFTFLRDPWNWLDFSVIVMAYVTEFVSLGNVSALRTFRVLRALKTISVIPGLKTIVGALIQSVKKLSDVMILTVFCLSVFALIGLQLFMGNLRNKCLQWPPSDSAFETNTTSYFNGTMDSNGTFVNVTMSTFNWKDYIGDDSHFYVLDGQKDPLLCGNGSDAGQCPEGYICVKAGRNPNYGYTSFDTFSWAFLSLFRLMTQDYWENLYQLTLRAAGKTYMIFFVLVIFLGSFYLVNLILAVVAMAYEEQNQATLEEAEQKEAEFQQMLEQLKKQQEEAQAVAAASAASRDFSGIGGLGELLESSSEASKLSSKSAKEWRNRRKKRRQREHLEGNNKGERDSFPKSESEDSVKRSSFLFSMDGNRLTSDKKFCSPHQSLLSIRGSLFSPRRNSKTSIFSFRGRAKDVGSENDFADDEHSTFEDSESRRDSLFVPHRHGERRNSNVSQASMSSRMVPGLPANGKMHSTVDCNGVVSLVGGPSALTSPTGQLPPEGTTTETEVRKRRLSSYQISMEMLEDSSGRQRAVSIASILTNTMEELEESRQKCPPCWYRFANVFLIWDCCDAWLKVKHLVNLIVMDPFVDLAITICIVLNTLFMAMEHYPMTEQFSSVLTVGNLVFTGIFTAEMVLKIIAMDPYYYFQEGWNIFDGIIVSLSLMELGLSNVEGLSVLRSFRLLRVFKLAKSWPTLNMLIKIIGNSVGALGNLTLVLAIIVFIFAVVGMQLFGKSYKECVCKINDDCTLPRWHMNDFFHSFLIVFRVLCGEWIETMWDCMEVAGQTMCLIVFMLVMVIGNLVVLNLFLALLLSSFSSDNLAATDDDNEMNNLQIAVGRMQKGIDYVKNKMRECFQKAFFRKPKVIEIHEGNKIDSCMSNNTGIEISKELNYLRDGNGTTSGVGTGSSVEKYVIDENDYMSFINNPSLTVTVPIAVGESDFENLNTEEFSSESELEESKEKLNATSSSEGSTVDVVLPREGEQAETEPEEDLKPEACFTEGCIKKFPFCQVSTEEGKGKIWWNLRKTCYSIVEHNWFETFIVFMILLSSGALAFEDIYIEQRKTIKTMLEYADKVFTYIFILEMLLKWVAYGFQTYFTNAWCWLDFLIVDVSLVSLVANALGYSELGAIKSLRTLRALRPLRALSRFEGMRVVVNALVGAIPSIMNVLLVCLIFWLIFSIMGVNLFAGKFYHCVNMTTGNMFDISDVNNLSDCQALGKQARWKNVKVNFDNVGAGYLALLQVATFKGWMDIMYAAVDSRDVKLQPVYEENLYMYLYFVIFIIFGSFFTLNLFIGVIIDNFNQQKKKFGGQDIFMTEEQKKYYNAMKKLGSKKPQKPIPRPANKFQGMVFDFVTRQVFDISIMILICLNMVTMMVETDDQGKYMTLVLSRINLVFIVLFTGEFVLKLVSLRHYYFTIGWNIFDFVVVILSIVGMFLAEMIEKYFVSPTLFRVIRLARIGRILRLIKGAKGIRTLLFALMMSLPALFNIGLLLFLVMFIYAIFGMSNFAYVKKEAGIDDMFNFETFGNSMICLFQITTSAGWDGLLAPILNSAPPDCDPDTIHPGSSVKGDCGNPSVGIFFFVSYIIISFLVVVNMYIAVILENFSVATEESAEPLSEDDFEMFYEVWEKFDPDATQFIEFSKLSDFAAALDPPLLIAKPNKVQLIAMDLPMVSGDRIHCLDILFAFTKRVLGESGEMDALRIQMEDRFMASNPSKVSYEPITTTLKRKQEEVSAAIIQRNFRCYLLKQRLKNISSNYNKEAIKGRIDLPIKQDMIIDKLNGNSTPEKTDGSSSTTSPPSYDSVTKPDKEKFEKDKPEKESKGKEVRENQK", "assay": "automated patch-clamp Nav isoform screening", "format": "cell-based", "conditions": "Nav1.3"}, "[5]": {"molecular_target": "hNav1.4 (Homo sapiens, UniProt P35499)", "assay": "automated patch-clamp Nav isoform screening", "format": "cell-based", "conditions": "Nav1.4"}, "[6]": {"molecular_target": "hNav1.5 (Homo sapiens, UniProt Q14524)", "sequence (Q14524 whole entry, canonical isoform)": "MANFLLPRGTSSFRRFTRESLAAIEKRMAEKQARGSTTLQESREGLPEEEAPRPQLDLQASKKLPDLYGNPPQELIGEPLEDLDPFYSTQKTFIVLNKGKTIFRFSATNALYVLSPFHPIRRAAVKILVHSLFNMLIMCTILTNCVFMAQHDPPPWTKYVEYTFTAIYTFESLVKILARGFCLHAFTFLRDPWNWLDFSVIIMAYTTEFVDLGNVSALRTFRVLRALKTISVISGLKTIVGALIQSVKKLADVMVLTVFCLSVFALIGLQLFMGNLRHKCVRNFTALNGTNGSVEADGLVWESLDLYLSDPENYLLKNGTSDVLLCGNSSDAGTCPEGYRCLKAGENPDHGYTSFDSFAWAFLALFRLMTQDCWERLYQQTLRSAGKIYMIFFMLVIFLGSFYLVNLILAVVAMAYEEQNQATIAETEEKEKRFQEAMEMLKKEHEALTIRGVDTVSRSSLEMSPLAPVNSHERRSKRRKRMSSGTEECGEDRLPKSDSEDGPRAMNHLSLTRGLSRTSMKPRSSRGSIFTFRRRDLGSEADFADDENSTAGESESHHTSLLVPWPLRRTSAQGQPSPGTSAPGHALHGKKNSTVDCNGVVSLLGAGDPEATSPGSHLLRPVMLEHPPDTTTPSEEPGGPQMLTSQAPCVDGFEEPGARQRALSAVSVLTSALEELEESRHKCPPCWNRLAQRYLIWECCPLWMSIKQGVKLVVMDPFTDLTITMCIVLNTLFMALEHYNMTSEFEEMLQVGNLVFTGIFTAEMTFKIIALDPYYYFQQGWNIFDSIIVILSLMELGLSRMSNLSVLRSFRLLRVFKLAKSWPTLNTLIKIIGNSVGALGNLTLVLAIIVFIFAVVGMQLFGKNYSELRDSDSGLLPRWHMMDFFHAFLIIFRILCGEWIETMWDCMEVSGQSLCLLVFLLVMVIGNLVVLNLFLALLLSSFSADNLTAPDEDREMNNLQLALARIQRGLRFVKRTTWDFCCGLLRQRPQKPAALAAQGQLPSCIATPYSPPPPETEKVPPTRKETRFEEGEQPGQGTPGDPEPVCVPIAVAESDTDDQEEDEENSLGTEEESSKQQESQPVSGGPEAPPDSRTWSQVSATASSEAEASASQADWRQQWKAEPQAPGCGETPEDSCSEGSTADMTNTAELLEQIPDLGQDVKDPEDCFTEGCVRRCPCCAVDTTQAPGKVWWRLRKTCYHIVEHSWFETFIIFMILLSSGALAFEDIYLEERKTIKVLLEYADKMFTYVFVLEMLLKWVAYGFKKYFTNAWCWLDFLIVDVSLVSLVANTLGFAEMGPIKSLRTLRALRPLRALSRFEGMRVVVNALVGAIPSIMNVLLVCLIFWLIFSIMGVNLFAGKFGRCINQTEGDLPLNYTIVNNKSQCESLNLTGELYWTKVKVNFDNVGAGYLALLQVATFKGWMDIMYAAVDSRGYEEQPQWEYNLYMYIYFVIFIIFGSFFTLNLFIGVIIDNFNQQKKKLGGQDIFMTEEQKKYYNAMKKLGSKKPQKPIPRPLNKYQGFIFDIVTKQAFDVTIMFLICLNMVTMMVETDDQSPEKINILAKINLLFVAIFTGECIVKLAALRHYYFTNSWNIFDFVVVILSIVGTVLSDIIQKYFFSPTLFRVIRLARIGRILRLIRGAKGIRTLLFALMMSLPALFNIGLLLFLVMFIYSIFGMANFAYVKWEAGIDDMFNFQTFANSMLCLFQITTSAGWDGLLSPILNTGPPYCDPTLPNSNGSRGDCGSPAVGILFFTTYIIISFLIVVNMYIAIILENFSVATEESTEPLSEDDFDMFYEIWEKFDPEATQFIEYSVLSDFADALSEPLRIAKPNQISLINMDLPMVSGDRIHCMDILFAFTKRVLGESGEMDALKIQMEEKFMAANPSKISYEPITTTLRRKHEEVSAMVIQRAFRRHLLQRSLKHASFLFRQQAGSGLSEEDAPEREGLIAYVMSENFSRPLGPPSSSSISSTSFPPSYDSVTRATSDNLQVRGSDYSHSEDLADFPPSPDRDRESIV", "assay": "automated patch-clamp Nav isoform screening", "format": "cell-based", "conditions": "Nav1.5"}, "[7]": {"molecular_target": "hNav1.6 (Homo sapiens, UniProt Q9UQD0)", "assay": "automated patch-clamp Nav isoform screening", "format": "cell-based", "conditions": "Nav1.6"}, "[8]": {"molecular_target": "hNav1.7 (Homo sapiens, UniProt Q15858)", "assay": "automated patch-clamp Nav isoform screening", "format": "cell-based", "conditions": "Nav1.7"}, "[9]": {"molecular_target": "hNav1.8/β3 (Homo sapiens, UniProt Q9Y5Y9)", "assay": "automated patch-clamp Nav isoform screening", "format": "cell-based", "conditions": "Nav1.8"}, "[10]": {"tested_on": "T-cell proliferation to oxazolone in lymphnodes", "assay": "contact hypersensitivity model / in vivo local lymph node assay (T-cell immunosuppressive activity)", "conditions": "mouse, 5–50 mg/kg i.p. day −1 to day 2, oxazolone sensitization day 0, read day 3"}, "[11]": {"tested_on": "sodium channels", "design": "method as in PMID 19341281", "conditions": "reported previously / values reported in literature; read-out: [3H]sipatrigine binding, IC50; cited from earlier work"}, "[12]": {"tested_on": "rat hippocampal slices", "design": "method as in PMID 19341281", "conditions": "reported previously; cited from earlier work"}, "[13]": {"conditions": "normalized to the effect of TTX"}},
  "note": "Like-named read-outs stand apart in the source and are kept apart here. Marks after values point to notes of the source that are not given here.",
  "data": [
    {"smiles": "O=C(NCc1noc(-c2nn(CCn3ccnc3)c3ccccc23)n1)c1ccccc1", "note": "[compound 6, N-[[5-[1-(2-Imidazol-1-ylethyl)indazol-3-yl]-1,2,4-oxadiazol-3-yl]methyl]benzamide]", "values": [
      {"measurement": "Emax at 50 µM", "setting": "[1]; [13]", "result": 46, "unit": "%"},
      {"measurement": "inactivated-state block (c) n (slope of the fit)", "setting": "[2]", "result": "1.71 ± 0.73"},
      {"measurement": "10 Hz block (b) n (slope of the fit)", "setting": "[3]", "result": "1.82 ± 0.73"},
      {"measurement": "inactivated-state block (c) n (slope of the fit)", "setting": "[3]", "result": "1.48 ± 0.38"},
      {"measurement": "tonic block (a) n (slope of the fit)", "setting": "[3]", "result": "1.12 ± 0.51"},
      {"measurement": "inactivated-state block (c) n (slope of the fit)", "setting": "[4]", "result": "0.78 ± 0.15"},
      {"measurement": "10 Hz block (b) n (slope of the fit)", "setting": "[5]", "result": "1.21 ± 0.36"},
      {"measurement": "inactivated-state block (c) n (slope of the fit)", "setting": "[5]", "result": "1.43 ± 0.27"},
      {"measurement": "10 Hz block (b) n (slope of the fit)", "setting": "[6]", "result": "1.16 ± 0.54"},
      {"measurement": "inactivated-state block (c) n (slope of the fit)", "setting": "[6]", "result": "0.99 ± 0.22"},
      {"measurement": "inactivated-state block (c) n (slope of the fit)", "setting": "[7]", "result": "2.45 ± 2.59"},
      {"measurement": "inactivated-state block (c) n (slope of the fit)", "setting": "[8]", "result": "2.24 ± 0.17"},
      {"measurement": "tonic block (a) n (slope of the fit)", "setting": "[8]", "result": "2.09 ± 1.73"},
      {"measurement": "inactivated-state block (c) n (slope of the fit)", "setting": "[9]", "result": "1.42 ± 0.1"},
      {"measurement": "T-cell immunosuppressive activity (inhibitory effect of sensitization; lymph node cell numbers, per cell proliferative response)", "setting": "[10]", "result": "no evidence suggestive of any inhibitory effect of sensitization"}
    ]},
    {"smiles": "CC(C)(C)OC(=O)NCc1noc(-c2nn(Cc3ccccc3)c3ccccc23)n1", "note": "[compound 14]", "values": [
      {"measurement": "IC50", "setting": "[11]", "result": 8.3, "unit": "µM"},
      {"measurement": "neuroprotection at 50 μM", "setting": "[12]", "result": "19 ^e %"}
    ]},
    {"smiles": "CC(C)(C)OC(=O)NCc1noc(-c2c3ccccc3nn2Cc2ccccc2)n1", "note": "[compound 15]", "values": [
      {"measurement": "IC50", "setting": "[11]", "result": 5.5, "unit": "µM"},
      {"measurement": "neuroprotection at 50 μM", "setting": "[12]", "result": "25 ^e %"}
    ]},
    {"smiles": "NCc1noc(-c2nn(Cc3ccccc3)c3ccccc23)n1", "note": "[compound 24]", "values": [
      {"measurement": "IC50", "setting": "[11]", "result": "3.3 ± 0.6", "unit": "µM"}
    ]},
    {"smiles": "NCc1noc(-c2c3ccccc3nn2Cc2ccccc2)n1", "note": "[compound 25]", "values": [
      {"measurement": "IC50", "setting": "[11]", "result": "7 ± 2.8", "unit": "µM"}
    ]},
    {"smiles": "O=C(NCc1noc(-c2c3ccccc3nn2CCn2ccnc2)n1)c1ccccc1", "note": "[compound 34]", "values": [
      {"measurement": "Emax at 50 µM", "setting": "[1]; [13]", "result": "41 ± 9.4", "unit": "%"}
    ]},
    {"smiles": "COc1cccc(C(=O)NCc2noc(-c3nn(CCn4ccnc4)c4ccccc34)n2)c1OC", "note": "[compound 41]", "values": [
      {"measurement": "Emax at 50 µM", "setting": "[1]; [13]", "result": 71, "unit": "%"}
    ]},
    {"smiles": "O=C(NCc1noc(-c2c3ccccc3nn2CCn2ccnc2)n1)c1cccc(OC(F)(F)F)c1", "note": "[compound 51]", "values": [
      {"measurement": "10 Hz block (b) n (slope of the fit)", "setting": "[2]", "result": "1.32 ± 0.16"},
      {"measurement": "inactivated-state block (c) n (slope of the fit)", "setting": "[2]", "result": "2.09 ± 0.32"},
      {"measurement": "tonic block (a) n (slope of the fit)", "setting": "[2]", "result": "1.09 ± 0.24"},
      {"measurement": "10 Hz block (b) n (slope of the fit)", "setting": "[3]", "result": "0.63 ± 0.14"},
      {"measurement": "inactivated-state block (c) n (slope of the fit)", "setting": "[3]", "result": "0.6 ± 0.12"},
      {"measurement": "tonic block (a) n (slope of the fit)", "setting": "[3]", "result": "0.48 ± 0.14"},
      {"measurement": "10 Hz block (b) n (slope of the fit)", "setting": "[4]", "result": "0.35 ± 0.19"},
      {"measurement": "inactivated-state block (c) n (slope of the fit)", "setting": "[4]", "result": "0.96 ± 0.19"},
      {"measurement": "10 Hz block (b) n (slope of the fit)", "setting": "[5]", "result": "1.34 ± 0.13"},
      {"measurement": "inactivated-state block (c) n (slope of the fit)", "setting": "[5]", "result": "1.75 ± 0.12"},
      {"measurement": "tonic block (a) n (slope of the fit)", "setting": "[5]", "result": "1.23 ± 0.18"},
      {"measurement": "10 Hz block (b) n (slope of the fit)", "setting": "[6]", "result": "0.37 ± 0.13"},
      {"measurement": "inactivated-state block (c) n (slope of the fit)", "setting": "[6]", "result": "0.49 ± 0.15"},
      {"measurement": "tonic block (a) n (slope of the fit)", "setting": "[6]", "result": "0.76 ± 0.23"},
      {"measurement": "10 Hz block (b) n (slope of the fit)", "setting": "[7]", "result": "0.42 ± 0.19"},
      {"measurement": "inactivated-state block (c) n (slope of the fit)", "setting": "[7]", "result": "1.17 ± 0.18"},
      {"measurement": "10 Hz block (b) n (slope of the fit)", "setting": "[8]", "result": "2.63 ± 0.33"},
      {"measurement": "inactivated-state block (c) n (slope of the fit)", "setting": "[8]", "result": "2.5 ± 0.1"},
      {"measurement": "tonic block (a) n (slope of the fit)", "setting": "[8]", "result": "2.59 ± 0.41"},
      {"measurement": "10 Hz block (b) n (slope of the fit)", "setting": "[9]", "result": "2.62 ± 1.05"},
      {"measurement": "inactivated-state block (c) n (slope of the fit)", "setting": "[9]", "result": "2.75 ± 0.66"},
      {"measurement": "tonic block (a) n (slope of the fit)", "setting": "[9]", "result": "2.14 ± 0.51"}
    ]},
    {"smiles": "Nc1nnc(-c2cccc(Cl)c2Cl)c(N)n1", "note": "[lamotrigine, reference compound]", "values": [
      {"measurement": "neuroprotection", "setting": "[1]; tested at 30 μM, normalized to the effect of TTX", "result": "33 ^b %"},
      {"measurement": "IC50", "setting": "[11]", "result": "1.8 ± 0.2", "unit": "µM"}
    ]},
    {"smiles": "CN1CCN(c2ncc(-c3cc(Cl)cc(Cl)c3Cl)c(N)n2)CC1", "note": "[sipatrigine, reference compound]", "values": [
      {"measurement": "neuroprotection", "setting": "[1]; tested at 3 μM", "result": "93 ^d %"},
      {"measurement": "IC50", "setting": "[11]", "result": "0.04 ± 0.001", "unit": "µM"}
    ]},
    {"smiles": "NC1=N[C@H](O)[C@H]2[C@H]3O[C@]4(O)O[C@@H]([C@@H](O)[C@@]2(N1)[C@@H]4O)[C@]3(O)CO", "note": "[tetrodotoxin, reference compound]", "values": [
      {"measurement": "neuroprotection", "setting": "[1]", "result": "100 ^c %"}
    ]}
  ]
}
